Activity calls are given as the source filed them. The calls are words filed in the database; no cut-off is given here.
Experiments:
Cynomolgus monkey [1] = assay: Increase in HDLC level in normal chow diet-fed cynomolgus monkey at 3 mg/kg, po for 5 days measured after 10 hrs of last dose; assay type: functional, Macaca fascicularis
[2] = Oral bioavailability in monkey at 10 mg/kg; assay type: ADME, organism-based, Macaca mulatta; details: rhesus monkey, in vivo
[3] = Inhibition of CETP-mediated transfer of cholesteryl ester to LDL/VLDL in hamster plasma by Roar assay; assay type: cell-free; details: Cricetinae
[4] = AUC in rat at 2 to 3 mg/kg, iv and 10 mg/kg, po; assay type: ADME, organism-based; details: plasma
[5] = Plasma concentration in normal chow diet-fed cynomolgus monkey at 30 mg/kg, po for 5 days; assay type: ADME, organism-based, Macaca fascicularis; parameters: dose 30 mg/kg, route oral
[6] = biological target: T1, Cholesteryl ester transfer protein (Homo sapiens, UniProt P11597); assay: Inhibition of human plasma-derived CETP activity by scintillation proximity assay; assay type: cell-free
T1 sequence (P11597 whole entry): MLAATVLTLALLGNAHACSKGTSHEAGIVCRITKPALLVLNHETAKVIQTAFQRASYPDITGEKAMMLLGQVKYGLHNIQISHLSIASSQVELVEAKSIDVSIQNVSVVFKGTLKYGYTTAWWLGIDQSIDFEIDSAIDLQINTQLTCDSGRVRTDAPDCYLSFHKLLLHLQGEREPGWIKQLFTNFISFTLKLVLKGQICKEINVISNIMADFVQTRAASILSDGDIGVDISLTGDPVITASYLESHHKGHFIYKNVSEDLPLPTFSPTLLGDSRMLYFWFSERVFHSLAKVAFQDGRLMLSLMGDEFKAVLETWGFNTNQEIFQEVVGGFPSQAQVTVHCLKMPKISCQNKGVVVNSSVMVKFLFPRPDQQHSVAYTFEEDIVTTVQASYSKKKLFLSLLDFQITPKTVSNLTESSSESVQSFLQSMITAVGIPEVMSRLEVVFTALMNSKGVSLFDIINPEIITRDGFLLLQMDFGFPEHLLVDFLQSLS

[7] = Inhibition of CETP-mediated transfer of cholesteryl ester to LDL/VLDL in monkey plasma by Roar assay; assay type: cell-free; details: Macaca mulatta
[8] = Plasma concentration in normal chow diet-fed cynomolgus monkey at 10 mg/kg, po for 5 days; assay type: ADME, organism-based, Macaca fascicularis; parameters: dose 10 mg/kg, route oral
Cynomolgus monkey [9] = assay: Ex vivo inhibition of CETP in normal chow diet-fed cynomolgus monkey at 3 mg/kg, po for 5 days by Roar assay; assay type: functional; details: Macaca fascicularis, 120 h
[10] = biological target: T2, Lipoprotein lipase (Homo sapiens) (UniProt P06858); assay: Inhibition of lipoprotein lipase activity assessed as release of free fatty acid from hydrolysis of VLDL by cell based assay
T2 sequence (whole entry): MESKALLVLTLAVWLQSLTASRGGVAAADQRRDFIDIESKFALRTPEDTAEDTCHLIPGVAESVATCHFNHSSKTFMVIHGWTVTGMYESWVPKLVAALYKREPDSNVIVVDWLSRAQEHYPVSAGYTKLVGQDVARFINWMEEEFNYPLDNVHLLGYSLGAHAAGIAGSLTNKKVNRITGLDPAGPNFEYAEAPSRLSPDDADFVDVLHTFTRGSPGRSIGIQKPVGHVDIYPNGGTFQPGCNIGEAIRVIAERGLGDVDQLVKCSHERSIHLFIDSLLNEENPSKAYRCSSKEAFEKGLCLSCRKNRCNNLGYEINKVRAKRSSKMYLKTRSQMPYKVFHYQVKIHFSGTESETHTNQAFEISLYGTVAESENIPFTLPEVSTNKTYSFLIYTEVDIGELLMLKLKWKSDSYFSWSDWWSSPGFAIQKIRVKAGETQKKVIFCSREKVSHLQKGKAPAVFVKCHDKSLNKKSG

Cynomolgus monkey [11] = assay: Increase in HDLC level in po dosed normal chow diet-fed cynomolgus monkey; assay type: functional, organism-based; details: Macaca fascicularis
Hamster [12] = assay: Increase in HDLC to LDLC ratio in high-fat fed hamster model at 3 to 30 mg/kg, po for 5 days measured after 2 hrs of last dose; assay type: functional, Cricetinae; details: dose mg/kg 3-30
[13] = Inhibition of CETP-mediated transfer of cholesteryl ester to LDL/VLDL in rabbit plasma by Roar assay; assay type: cell-free; details: Oryctolagus cuniculus
[14] = biological target: Phospholipid transfer protein (Homo sapiens) (UniProt P55058); assay: Inhibition of PLTP activity assessed as phosphatidylcholine transferred from [3H]phosphatidylcholine (dipalmitoyl)-labeled liposomes to HDL by cell based liquid scintillation counter
Sequence of Phospholipid transfer protein (Homo sapiens) (P55058 whole entry): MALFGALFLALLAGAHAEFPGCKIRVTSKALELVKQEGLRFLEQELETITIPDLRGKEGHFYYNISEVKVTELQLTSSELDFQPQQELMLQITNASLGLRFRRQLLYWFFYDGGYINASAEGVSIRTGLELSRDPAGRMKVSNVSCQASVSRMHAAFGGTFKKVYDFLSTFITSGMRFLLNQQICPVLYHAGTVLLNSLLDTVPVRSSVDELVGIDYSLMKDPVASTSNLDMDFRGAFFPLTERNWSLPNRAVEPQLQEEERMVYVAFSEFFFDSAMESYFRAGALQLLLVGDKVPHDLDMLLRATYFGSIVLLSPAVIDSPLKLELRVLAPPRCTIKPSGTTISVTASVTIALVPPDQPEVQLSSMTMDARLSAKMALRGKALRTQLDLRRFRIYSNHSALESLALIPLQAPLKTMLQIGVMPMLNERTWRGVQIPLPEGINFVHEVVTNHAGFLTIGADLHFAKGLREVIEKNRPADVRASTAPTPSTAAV

Cynomolgus monkey [15] = assay: Increase in HDLC level in normal chow diet-fed cynomolgus monkey at 10 mg/kg, po for 5 days measured after 10 hrs of last dose; assay type: functional, Macaca fascicularis
Mus musculus = assay: Increase in HDLC level in normal chow diet-fed human CETP transgenic mouse model at 10 mg/kg, po for 5 days measured after 2 hrs of last dose; assay type: functional
[16] = biological target: T1, Cholesteryl ester transfer protein; assay: Inhibition of CETP-mediated transfer of [3H]cholesteryl ester from HDL in human plasma after 18 hrs; assay type: cell-free
[17] = biological target: T1, Cholesteryl ester transfer protein; assay: Inhibition of CETP-mediated transfer of cholesteryl ester to LDL/VLDL in human plasma by Roar assay; assay type: cell-free
Hamster [18] = assay: Increase in HDLC level in high-fat fed hamster model at 30 mg/kg, po for 5 days measured after 2 hrs of last dose; assay type: functional, Cricetinae
[19] = Oral bioavailability in dog at 10 mg/kg; assay type: ADME, organism-based, Canis lupus familiaris; details: in vivo

O[C@@H](CN1c2cccc(-c3cccc(OC(F)(F)F)c3)c2CC[C@@H]1c1cccc(OC(F)(F)C(F)F)c1)C(F)(F)F
Activity (Cynomolgus monkey [1]): 4%
bioavailability [2]: 27%
IC50 [3]: 0.1 µM
AUC [4]: 31300 ng·h/mL
concentration at 120 h [5]: 5.9 µM
IC50 [6]: 0.039 µM
IC50 [7]: 1.4 µM
concentration at 120 h [8]: 2.7 µM
inhibition in vivo at 3 mg/kg (Cynomolgus monkey [9]): 11%
Activity [10]: inactive
Activity (Cynomolgus monkey [11]): Dose-dependent effect
Activity (Hamster [12]): 4.6
IC50 [13]: 3.5 µM
Activity [14]: inactive
Activity (Cynomolgus monkey [15]): 16%
Activity (Mus musculus): 36%
IC50 [16]: 0.2 µM
IC50 [17]: 1.2 µM
Activity (Hamster [18]): 40%
bioavailability [19]: 5%

From ChEMBL document CHEMBL1152778, “Design, synthesis, and biological evaluation of (2R,alphaS)-3,4-dihydro-2-[3-(1,1,2,2-tetrafluoroethoxy)phenyl]-5-[3-(trifluoromethoxy)-phenyl]-alpha-(trifluoromethyl)-1(2H)-quinolineethanol as potent and orally active cholesteryl ester transfer protein inhibitor” (J Med Chem, 2009)
